Legend:
[1] = system: H3K18Ac in HB-CLS-2 cells; assay: H3K18AC in-cell western (ICW) assay; assay type: cell-based; details: H3K18Ac in-cell western, HB-CLS-2 cells; read-out: CREBBP ICW IC50
From the text: The following example describes methods and materials relating to an H3K18AC in-cell western assay. IC50 values (micromolar (μM)) are summarized in Table 1, Table 2, and Table 3 under the column labeled: “CREBBP ICW IC50 (micromolar).”
MATERIALS: HB-CLS-2 cell line, DMEM: Ham's F12 medium (1:1 mixture), penicillin-streptomycin, heat inactivated fetal bovine serum, D-PBS, Odyssey blocking buffer, 800CW goat anti-rabbit IgG (H+L) antibody, Licor Odyssey CLx Infrared Scanner, H3K18Ac rabbit monoclonal antibody. DRAQS fluorescent probe solution (5 mM), and 100% methanol were commercially available. HB-CLS-2 adherent cells were maintained in complete growth medium (DMEM: Ham's F12 supplemented with 10% v/v heat inactivated fetal bovine serum) and cultured at 37° C. under 5% CO2.
METHOD: Cell Treatment, ICW for detection of H3K18Ac and DNA content. HB-CLS-2 cells were seeded in assay medium (DMEM: Ham's F12 supplemented with 10% v/v heat inactivated fetal bovine serum and 1% Penicillin/Streptomycin) at a concentration of 80,000 cells per mL in a Poly-D-Lysine coated 384-well culture plates at 50 μL per well. Plates were incubated at room temperature for 30 minutes and then incubated at 37° C., 5% CO2 for additional 16-24 hours. Compounds and DMSO normalization were then added directly to the plates using a D300 Digital Dispenser and returned to the incubator at 37° C., 5% CO2 for 2 hrs. After the incubation, the contents of the plates were discarded into the appropriate waste stream and blotted on laboratory tissue to remove residual liquid. 90 μL per well of 100% ice cold methanol was added to the plates and incubated at room temperature for 15 minutes. Then methanol was then discarded into the appropriate waste stream and the plates again blotted on laboratory tissue to remove residual liquid. Plates were transferred to a Biotek 405 plate washer and washed 3 times with 100 μL per well of wash buffer (1X PBS containing 0.1% Triton X-100 (v/v)). Next, 50 μL per well of Odyssey blocking buffer with 0.1% Tween 20 (v/v) was added to each plate and incubated for 1 hour at room temperature. Blocking buffer was removed and 20 μL of primary antibody were added (α-H3K18Ac diluted 1:800 in Odyssey buffer with 0.1% Tween 20 (v/v)) and plates were incubated overnight (16 hours) at 4° C. Plates were washed 5 times with 100 μL per well of wash buffer. Next 20 μL per well of secondary antibody was added (1:400 800CW goat anti-rabbit IgG (H+L) antibody, 1:2000 DRAQ5 in Odyssey buffer with 0.1% Tween 20 (v/v)) and incubated for 1 hour at room temperature. The plates were washed 3 times with 100 μL per well wash buffer then 3 times with 100 μL per well of water. Plates were allowed to dry at room temperature then imaged on the Licor Odyssey CLx machine which measured integrated intensity at 700 nm and 800 nm wavelengths. Both 700 and 800 channels were scanned.

CREBBP (1084-1701) = target: T1, CREBBP (1084-1701) (Homo sapiens, UniProt Q92793); assay: Biochemical assay for CREBBP (1084-1701), SAMDI; details: SAMDI, read-out: CREBBP Biochemistry IC50
T1 construct: measured in the following biochemical assay using CREBBP (1084-1701); purchased
From the text: The following example describes materials and methods relating to a biochemical assay for CREBBP (1084-1701). IC50 values (micromolar (μM)) are summarized in Table 1, Table 2, and Table 3 under the column labeled: “CREBBP Biochemistry IC50 (micromolar).”
MATERIALS: Reagents 1M Tris pH 8.0, Tween 20 10%, DTT, bovine serum gelatin (BSG) 2%, Peptide #233 (biotin-H3 11-25, K14R, K23R), Acetyl-CoA, CREBBP (1084-1701), formic acid (100%), and sodium bicarbonate were commercially available.
METHODS: The effect of compounds was measured in the following biochemical assay using CREBBP (1084-1701). Enzyme mix 30 μL per well was added using a Multi-drop to wells of prepared Compound Stock plate. The enzyme was incubated in the Compound Stock plate for 30 minutes at room temperature. Substrate mix, 20 μL per well, was added to Compound Stock plate using a Multi-drop. The plate was covered and incubate 30 minutes at room temperature. The reaction was stopped with addition of 5 μL per well of 5% formic acid using a Multi-drop. The plate was Incubated for 30 minutes at room temperature. The reaction mixture was neutralized with addition of 5 μL per well of 10% sodium bicarbonate using a Multi-drop. The plate was Incubated for 35 minutes at room temperature. The reaction mixture was Transferred 2.5 μL per well to a SAMDI biochip. The plate was Incubated for 60 minutes at room temperature. The samples were washed, dried, and matrix applied to SAMDI biochip. The SAMDI biochip was then read on the mass spectrometer.

T1 sequence (Q92793 1084-1701): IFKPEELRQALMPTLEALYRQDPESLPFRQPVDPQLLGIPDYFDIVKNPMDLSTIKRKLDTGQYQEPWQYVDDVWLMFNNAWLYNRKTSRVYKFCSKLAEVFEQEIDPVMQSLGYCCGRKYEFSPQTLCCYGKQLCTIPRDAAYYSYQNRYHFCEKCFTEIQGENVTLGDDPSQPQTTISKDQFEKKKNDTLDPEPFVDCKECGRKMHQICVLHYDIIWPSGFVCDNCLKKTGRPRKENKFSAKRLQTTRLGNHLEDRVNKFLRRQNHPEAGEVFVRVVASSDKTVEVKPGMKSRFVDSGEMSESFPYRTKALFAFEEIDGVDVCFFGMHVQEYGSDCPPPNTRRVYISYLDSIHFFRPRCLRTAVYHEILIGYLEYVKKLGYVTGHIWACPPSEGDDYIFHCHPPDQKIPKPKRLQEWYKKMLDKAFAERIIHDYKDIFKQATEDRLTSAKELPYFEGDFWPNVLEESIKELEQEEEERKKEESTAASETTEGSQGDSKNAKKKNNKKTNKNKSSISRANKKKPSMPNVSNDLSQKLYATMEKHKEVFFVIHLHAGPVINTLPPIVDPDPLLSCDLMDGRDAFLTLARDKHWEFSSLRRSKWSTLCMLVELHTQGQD

CCn1ncc(CN(C)C(=O)c2nc(-c3ccccc3C#N)nc3ccc(Cl)cc23)c1C [Compound 294]
IC50 [1]: 570 nM | IC50 (CREBBP (1084-1701)): 220 nM

CCn1ncc(CN(C)C(=O)c2nc(-c3cc(Cl)ccc3Cl)nc3ccc(Cl)cc23)c1C [Compound 297]
IC50 [1]: 3200 nM | IC50 (CREBBP (1084-1701)): 1800 nM

Cc1c(CN(C)C(=O)c2nc(-c3cccc(Cl)c3)nc3ccc(Cl)cc23)cnn1C(C)C [Compound 299]
IC50 [1]: 610 nM | IC50 (CREBBP (1084-1701)): 28 nM

CCn1ncc(CN(C)C(=O)c2nc(-c3cccc(C#N)c3)nc3ccc(Cl)cc23)c1C [Compound 301]
IC50 [1]: 3900 nM | IC50 (CREBBP (1084-1701)): 2000 nM

CCN(Cc1cnn(CC)c1C)C(=O)c1cc(-c2ccccc2Cl)nc2ccc(Cl)cc12 [Compound 302]
IC50 [1]: 8900 nM | IC50 (CREBBP (1084-1701)): 2500 nM

CCc1ccc2nc(-c3ccccc3Cl)nc(C(=O)N(C)Cc3cnn(CC)c3C)c2c1 [Compound 312]
IC50 [1]: 580 nM | IC50 (CREBBP (1084-1701)): 72 nM

CCn1ncc(CN(C)C(=O)c2nc(-c3cscn3)nc3ccc(Cl)cc23)c1C [Compound 313]
IC50 [1]: 1900 nM | IC50 (CREBBP (1084-1701)): 1900 nM

CCn1ncc(CN(C)C(=O)c2nc(-c3cccc(F)c3)nc3ccc(Cl)cc23)c1C [Compound 316]
IC50 [1]: 1700 nM | IC50 (CREBBP (1084-1701)): 350 nM

CCn1ncc(CN(C)C(=O)c2nc(-c3cccc(C)c3)nc3ccc(Cl)cc23)c1C [Compound 317]
IC50 [1]: 1500 nM | IC50 (CREBBP (1084-1701)): 230 nM

CCn1ncc(CN(C)C(=O)c2cc(-c3cccc(Cl)c3)nc3ccc(NC)cc23)c1C [Compound 330]
IC50 [1]: 17000 nM | IC50 (CREBBP (1084-1701)): 9000 nM

CCn1ncc(CN(C)C(=O)c2nc(-c3ccccc3F)nc3ccc(Cl)cc23)c1C [Compound 335]
IC50 [1]: 1500 nM | IC50 (CREBBP (1084-1701)): 530 nM

CCc1ncc(CN(C)C(=O)c2cc(-c3ccccc3Cl)nc3ccc(Cl)cc23)n1C [Compound 336]
IC50 [1]: 1200 nM | IC50 (CREBBP (1084-1701)): 690 nM

Cc1c(CN(C)C(=O)c2nc(-c3ccccc3Cl)nc3ccc(Cl)cc23)cnn1CC(F)(F)F [Compound 337]
IC50 [1]: 2300 nM | IC50 (CREBBP (1084-1701)): 630 nM

CCn1ncc(CN(CCO)C(=O)c2nc(-c3cccc(Cl)c3)nc3ccc(Cl)cc23)c1C [Compound 346]
IC50 [1]: 1300 nM | IC50 (CREBBP (1084-1701)): 420 nM

CCN(Cc1cnn(CC)c1C)C(=O)c1nc(-c2cccc(Cl)c2)nc2ccc(Cl)cc12 [Compound 347]
IC50 [1]: 5600 nM | IC50 (CREBBP (1084-1701)): 530 nM

CCn1ncc(CN(C)C(=O)c2cc(-c3ccccc3Cl)nc3c(C)cc(Cl)cc23)c1C [Compound 350]
IC50 [1]: 6400 nM | IC50 (CREBBP (1084-1701)): 630 nM

CCc1noc(CN(C)C(=O)c2nc(-c3ccccc3Cl)nc3ccc(Cl)cc23)c1C [Compound 356]
IC50 [1]: 1900 nM | IC50 (CREBBP (1084-1701)): 400 nM

CCn1ncc(CN(C)C(=O)c2nc(-c3cccc(Cl)c3)nc3ccc(COC)cc23)c1C [Compound 357]
IC50 [1]: 720 nM | IC50 (CREBBP (1084-1701)): 28 nM

CCn1ncc(CN(C)C(=O)c2nc(-c3cn[nH]c3)nc3ccc(Cl)cc23)c1C [Compound 358]
IC50 [1]: 13000 nM | IC50 (CREBBP (1084-1701)): 16000 nM

CCn1ncc(CN(C)C(=O)c2nc(-c3ccccc3Cl)nc3cc(C)c(Cl)cc23)c1C [Compound 359]
IC50 [1]: 1000 nM | IC50 (CREBBP (1084-1701)): 400 nM

CCc1ccc2nc(-c3cccc(Cl)c3)nc(C(=O)N(C)Cc3cnn(CC)c3C)c2c1 [Compound 361]
IC50 [1]: 480 nM | IC50 (CREBBP (1084-1701)): 2.8 nM

CCn1ncc(CN(C)C(=O)c2nc(-c3ccccc3C)nc3ccc(Cl)cc23)c1C [Compound 362]
IC50 [1]: 1200 nM | IC50 (CREBBP (1084-1701)): 710 nM
